From ChEMBL document CHEMBL1201862, “PubChem BioAssay data set” (2004)
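Grown in 96-well plates, cells were treated for 48 hours with each compound at five concentrations. Insufficient inhibition: endpoint recorded as highest concentration tested. GI50: concentration for 50% inhibition of growth.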 Active and inactive are the calls of the source. No stated cut-off is given here; in the data, active = GI50 up to about 1.1 µM and inactive = higher.

Tests used:
Assay in all cases: NCI-60 cell line screen, 48 h
[1] = test system: EKVX
[2] = test system: HCC 2998
[3] = test system: HL-60
[4] = test system: HOP-92
[5] = test system: K562
[6] = test system: M14
[7] = test system: Malme-3M
[8] = test system: NCI-H226
[9] = test system: NCI-H522
[10] = test system: OVCAR-5
[11] = test system: RXF 393
[12] = test system: SF-295
[13] = test system: SF-539
[14] = test system: SNB-19
[15] = test system: SR
[16] = test system: SW-620
[17] = test system: TK-10
[18] = test system: NCI-H460
[19] = test system: RPMI-8226

Structure (SMILES)	GI50 [1]	GI50 [2]	GI50 [3]	GI50 [4]	GI50 [5]	GI50 [6]	GI50 [7]	GI50 [8]	GI50 [9]	GI50 [10]	GI50 [11]	GI50 [12]	GI50 [13]	GI50 [14]	GI50 [15]	GI50 [16]	GI50 [17]	GI50 [18]	GI50 [19]
[C-]#[N+]C(C)(C)C[C@H]1CC(C)C2CCC(C)C3([N+]#[C-])CCC(=C)C1[C@H]23 (stereo partly drawn)	6.55 µM (inactive)	5.83 µM (inactive)	0.601 µM (active)	0.106 µM (active)	0.327 µM (active)	1.95 µM (inactive)	5.86 µM (inactive)	2.32 µM (inactive)	1.95 µM (inactive)	0.288 µM (active)	0.294 µM (active)	0.887 µM (active)	3.37 µM (inactive)	2.22 µM (inactive)	0.418 µM (active)	5.08 µM (inactive)	5.62 µM (inactive)		
O=C(O/C(=C(/N=N/c1ccccc1)c1ccccc1)c1ccccc1)c1ccccc1	> 100 µM (inactive)	> 100 µM (inactive)		82 µM (inactive)	48.1 µM (inactive)		> 100 µM (inactive)	> 100 µM (inactive)	> 100 µM (inactive)	> 100 µM (inactive)	> 100 µM (inactive)	> 100 µM (inactive)	> 100 µM (inactive)	> 100 µM (inactive)	> 100 µM (inactive)	> 100 µM (inactive)	> 100 µM (inactive)	> 100 µM (inactive)	> 100 µM (inactive)
CN1CCC(O)C(CNC23CC4CC(CC(C4)C2)C3)C1 (stereo not drawn)	> 100 µM (inactive)		> 100 µM (inactive)	85.1 µM (inactive)	> 100 µM (inactive)		> 100 µM (inactive)	> 100 µM (inactive)	> 100 µM (inactive)	> 100 µM (inactive)	62.2 µM (inactive)	> 100 µM (inactive)	> 100 µM (inactive)	> 100 µM (inactive)	> 100 µM (inactive)	> 100 µM (inactive)	> 100 µM (inactive)	> 100 µM (inactive)	
CC(=O)N(C)c1ccc2ncccc2c1[N+](=O)[O-]	> 100 µM (inactive)	> 100 µM (inactive)	> 100 µM (inactive)	> 100 µM (inactive)	> 100 µM (inactive)	> 100 µM (inactive)	> 100 µM (inactive)	> 100 µM (inactive)		> 100 µM (inactive)	> 100 µM (inactive)	> 100 µM (inactive)	> 100 µM (inactive)	> 100 µM (inactive)	> 100 µM (inactive)	> 100 µM (inactive)	> 100 µM (inactive)	> 100 µM (inactive)	> 100 µM (inactive)
COP(=O)(CC(=O)C1OC(C)(C)OC1C(O)COCc1ccccc1)OC (stereo not drawn)	> 100 µM (inactive)	> 100 µM (inactive)	> 100 µM (inactive)	> 100 µM (inactive)	> 100 µM (inactive)	> 100 µM (inactive)	> 100 µM (inactive)	> 100 µM (inactive)		> 100 µM (inactive)	> 100 µM (inactive)	> 100 µM (inactive)	> 100 µM (inactive)		> 100 µM (inactive)	> 100 µM (inactive)	> 100 µM (inactive)	> 100 µM (inactive)	> 100 µM (inactive)
CN(C)CCNC(=O)c1ccc2ccc3cccnc3c2n1	15.5 µM (inactive)	10.5 µM (inactive)	26.4 µM (inactive)	16.4 µM (inactive)	21.5 µM (inactive)	16.4 µM (inactive)	13.5 µM (inactive)	14.3 µM (inactive)	7.23 µM (inactive)	14.6 µM (inactive)	12.8 µM (inactive)	18.7 µM (inactive)	8.63 µM (inactive)	19.6 µM (inactive)	4.24 µM (inactive)	5.98 µM (inactive)	9.35 µM (inactive)	6.18 µM (inactive)	
Oc1ccc(I)c2cccnc12	9.27 µM (inactive)		2.12 µM (inactive)	15.9 µM (inactive)	2.93 µM (inactive)	10.4 µM (inactive)	7.55 µM (inactive)	15.6 µM (inactive)	1.94 µM (inactive)	52.5 µM (inactive)	6.82 µM (inactive)	3.48 µM (inactive)	12.5 µM (inactive)	17.8 µM (inactive)	3.35 µM (inactive)	4.43 µM (inactive)	37.2 µM (inactive)	3.95 µM (inactive)	2.89 µM (inactive)
O=C(N/C(=C\c1cc(Cl)ccc1Cl)c1nc2ccccc2[nH]1)c1ccccc1	28.5 µM (inactive)	17.9 µM (inactive)	21.2 µM (inactive)	8.41 µM (inactive)	24.4 µM (inactive)	27.9 µM (inactive)	19.7 µM (inactive)		29.1 µM (inactive)	52.2 µM (inactive)	21.3 µM (inactive)	24.5 µM (inactive)	39.3 µM (inactive)	46.9 µM (inactive)	24.4 µM (inactive)	22 µM (inactive)	93.3 µM (inactive)		
COc1cc(OC)c(OC)cc1/C=C/c1cc[n+](C)c2ccccc12	50.2 µM (inactive)	52.6 µM (inactive)	14 µM (inactive)	23.9 µM (inactive)	3.07 µM (inactive)	60.8 µM (inactive)	> 100 µM (inactive)			> 100 µM (inactive)	53.1 µM (inactive)	15.3 µM (inactive)		8.45 µM (inactive)	17.8 µM (inactive)	36.2 µM (inactive)	> 100 µM (inactive)	33.2 µM (inactive)	21.2 µM (inactive)
CCOC(=O)C(NC(=O)OC(C)(C)C)C(=O)OCC	> 100 µM (inactive)	> 100 µM (inactive)		> 100 µM (inactive)	> 100 µM (inactive)				> 100 µM (inactive)	> 100 µM (inactive)	> 100 µM (inactive)			> 100 µM (inactive)	> 100 µM (inactive)	> 100 µM (inactive)	> 100 µM (inactive)	> 100 µM (inactive)	> 100 µM (inactive)
CCN(CC)c1ccc2c(c1)Oc1ccc(N(CC)CC)cc1C21Oc2ccccc2-c2c1c1ccccc1n2CC (stereo not drawn)	6.47 µM (inactive)	3.07 µM (inactive)	1.25 µM (inactive)	0.302 µM (active)	0.679 µM (active)	3.07 µM (inactive)	1.73 µM (inactive)	7.74 µM (inactive)	1.3 µM (inactive)		1.81 µM (inactive)	2.7 µM (inactive)		6.87 µM (inactive)	4.48 µM (inactive)	3.58 µM (inactive)			0.592 µM (active)
CCN(CC)/[N+]([O-])=N/OCC(C)O (stereo not drawn)	> 100 µM (inactive)	> 100 µM (inactive)	> 100 µM (inactive)	> 100 µM (inactive)	> 100 µM (inactive)	> 100 µM (inactive)		> 100 µM (inactive)	> 100 µM (inactive)	> 100 µM (inactive)	> 100 µM (inactive)	> 100 µM (inactive)	> 100 µM (inactive)	> 100 µM (inactive)	> 100 µM (inactive)	> 100 µM (inactive)	> 100 µM (inactive)	> 100 µM (inactive)	
